Values quoted from earlier work, collected in PMC5036423 (CPT: Pharmacometrics & Systems Pharmacology, 2016).

How the values were obtained:
[1] = tested on: intact PTH; details: first-in-human phase I study
[2] = 4 weeks of 5 mg TIW i.v. dosing, patients on HD

Accumulation in Cmax [2]: approximately twofold | Accumulation in area under the curve over 48 hours [2]: threefold | Plasma exposure (Cmax and area under the curve over 48 hours) versus dose (TIW i.v. administration in patients on HD): increased proportionally with the dose | Fraction of the drug eliminated by TIW HD (patients receiving TIW hemodialysis): ~50%
Compound: CC(=O)N[C@H](CSSC[C@H](N)C(=O)O)C(=O)N[C@H](C)C(=O)N[C@H](CCCNC(=N)N)C(=O)N[C@H](CCCNC(=N)N)C(=O)N[C@H](CCCNC(=N)N)C(=O)N[C@H](C)C(=O)N[C@H](CCCNC(=N)N)C(N)=O [etelcalcetide]
Effect on intact PTH in healthy subjects [1]: showed intact PTH lowering effect
